Assay results from PMC6493465 (Oncotarget, 2019).

How the values were obtained:
MOLM-13 cells [1] = assay: Antitumor effects in mice xenografted with MOLM-13 cells; assay type: in vivo, mouse; conditions: MOLM-13 xenograft
Procedure: Four or five-week-old male nude mice (CanN.Cg-Foxn1nu/Crl/Crlj[nu/nu]; Charles River Laboratories Japan, Inc., Kanagawa, Japan) were maintained under specific pathogen-free conditions and received a standard diet and water supply throughout the study. All animal experimental procedures were performed in accordance with the Animal Ethics Committee of Astellas Pharma, Inc. For in vivo experiments, suspensions of MV4-11 and MOLM-13 cells in PBS at a concentration of 1 × 10^8 cells/mL were mixed with an equivalent volume of Matrigel® Basement Membrane Matrix, resulting in a final cell concentration of 5 × 10^7 cells/mL. The cells were subcutaneously injected into the flanks of mice at a concentration of 5 × 10^6 cells/0.1 mL/mouse. After tumor establishment, mice were divided into groups with similar mean tumor volume across groups.
Dosing volumes were 10 mL/kg for oral and intraperitoneal (IP) administration, and 5 or 10 mL/kg for intravenous (IV) administration. Treatment was administered once daily on designated days. The first day of treatment was designated as Day 0 and observation continued until Day 20 or 21 for mice xenografted with MV4-11 cells and Day 16 for mice xenografted with MOLM-13 cells. In mice xenografted with MV4-11 cells for experiments involving triple combination treatment, the control group received oral administration of vehicle (0.5% methylcellulose, Days 0–20), IP administration of vehicle (saline, Days 0–4), and IV administration of vehicle (saline, Days 0–2).
Mice with established tumors were selected and divided into groups on Day −1 or Day 0, so that the mean tumor volumes were similar across groups. Body weights and tumor volumes assessed on Day −1 were designated as Day 0 values. Body weight and tumor diameter were measured for each experimental group; antitumor activity was expressed as the percent inhibition of tumor growth and the percent of tumor regression (further details are outlined in the Supplementary Materials). […] Complete regression was defined as no palpable or observable tumor. […]
www.oncotarget.com Oncotarget, Supplementary Materials […]
Body weight and tumor diameter were measured group on Day 0]) in xenografted nude mice xenografted with MV4-11 cells on the indicated days for each experimental group: 1. […]
Tumor diameter was measured using a caliper and tumor 0.5% methylcellulose); 2. Oral methylcellulose (0.5%) in volume was determined by calculating the volume of an combination with IV IDR (0.5 mg/kg) and IP AraC (50 ellipsoid (ie, Length × Width2 × 0.5). The percent inhibition mg/kg); 3. […]
of tumor growth was calculated using the formula: kg) and IP AraC (50 mg/kg). […]
The percent tumor regression was calculated using […]

MOLM-13 cells [2] = assay: Annexin-V staining (apoptosis), MOLM-13; assay type: cell-based, human; conditions: 48 hours; for percentage of annexin V-positive cells: control 4.1%
Procedure: (§1) MV4-11 cells were seeded in 12-well plates at a concentration of 2 × 10^5 cells/well and cultured overnight. […] MOLM-13 cells were seeded in 12-well plates at a concentration of 1 × 10^5 cells/well and cultured overnight.
(§2) Cells were harvested and incubated with Guava® Nexin Reagent (Merck Millipore Corporation, Billerica, MA). Annexin-V-positive cells were assessed using a Guava® PCA microcytometer (Merck Millipore Corporation); the percentage of annexin-V-positive cells (2000 cells per sample) was analyzed using CytoSoft™ software (Merck Millipore Corporation). Mean percentages of annexin-V-positive cells were derived from three independent experiments.

MV4-11 cells [3] = assay: Cell cycle analysis; assay type: cell-based, human; conditions: 24 hours, control 59.8%
Procedure: MV4-11 cells were seeded in 12-well plates (AGC Techno Glass Co. Ltd., Shizuoka, Japan) at a concentration of 2 × 10^5 cells/well and cultured overnight.
The cells were subsequently harvested and fixed in ice-cold 70% ethanol and maintained at 4°C. Following fixation, the cells were washed with phosphate-buffered saline (PBS) and were resuspended in Guava® Cell Cycle Reagent (Merck Millipore Corporation, Darmstadt, Germany). Cell cycle distribution was measured using a Guava® PCA microcytometer (Merck Millipore Corporation), and was analyzed in 5000 cells per sample using CytoSoft™ software (Merck Millipore Corporation). The mean percentages of cells in sub-G1, G1, S, and G2/M phases were derived from four independent assays.

MV4-11 cells [4] = assay: Annexin-V staining (apoptosis), MV4-11; assay type: cell-based, human; conditions: gilteritinib alone 3, 10 and 30 nM, 48 hours, vs vehicle
Procedure: as §1, §2

[5] = table title day 21, Aza experiment: oral gilteritinib 30 mg/kg/day Days 0-16, IV Aza 3 mg/kg/day Days 0-4

| Structure (SMILES) | Inhibition of Tumor Growth (MOLM-13 cells [1]; [5]) | mean percentage of annexin V-positive cells (MOLM-13 cells [2]; single agent: IDR 3 nM, AraC 100 nM or Aza 1000 nM) | Inhibition of Tumor Growth (MOLM-13 cells [1]; by Day 16, gilteritinib 30 mg/kg alone (both experiments)) | Inhibition of Tumor Growth (MOLM-13 cells [1]; table title day 21, AraC/IDR experiment: oral gilteritinib 30 mg/kg/day Days 0-15, IP AraC 50 mg/kg/day Days 0-4, IV IDR 0.5 mg/kg/day Days 0-2) | percentage of annexin V-positive cells (MOLM-13 cells [2]; gilteritinib alone 30 nM) | percentage of annexin V-positive cells (MOLM-13 cells [2]; gilteritinib alone 100 nM) | mean proportion of MV4-11 cells in G1 phase (MV4-11 cells [3]; gilteritinib 3 nM) | mean proportion of MV4-11 cells in G1 phase (MV4-11 cells [3]; gilteritinib 10 nM) | proportion of annexin-V-positive cells (MV4-11 cells [4]) |
| --- | --- | --- | --- | --- | --- | --- | --- | --- | --- |
| Nc1ncn([C@@H]2O[C@H](CO)[C@@H](O)[C@H]2O)c(=O)n1 [Aza, Azacitidine] | 37% | 21.9% | – | – | – | – | – | – | – |
| CCc1nc(C(N)=O)c(Nc2ccc(N3CCC(N4CCN(C)CC4)CC3)c(OC)c2)nc1NC1CCOCC1 [Gilteritinib] | 90% | – | ≥ 90% | 93% | 32.0% | 52.4% | 69.0% | 70.7% | significantly increased |
